Where no end group is shown, it is not given here.
What was measured:
NKG2A−/NKG2C+ NK cells = test: NK cell activation markers in NKG2A-/NKG2C+ NK cells incubated with peptide and K562 expressing HLA-E (activation); assay type: cell-based, human; conditions: for percentage of CCL3+ NK cells / percentage of CD107+ NK cells / percentage of IFNG+ NK cells / percentage of TNF+ NK cells: NKG2A-/NKG2C+ NK cells, K562/HLA-E
Summary of the method: (§1)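 Percent of NK cells positive for cell-surface markers was measured after exposure to K562 targets expressing HLA-E and loaded with human- or HCMV-proteome-derived peptides. A decrease means inhibition, an increase activation; NKG2A−/NKG2C− cells served as controls.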

NKG2A−/NKG2C− NK cells = test: NK cell activation markers in control NKG2A-/NKG2C- NK cells incubated with peptide and K562 expressing HLA-E; assay type: cell-based, human
Summary of the method: as §1

TLPKRGLFL [human2, TLPKRGLFL]
effect on NKG2A−/NKG2C+ NK cell activation (in words) (NKG2A−/NKG2C+ NK cells; K562 expressing HLA-E, CD107a, IFNG, TNF, CCL3): strong activating effects | percentage of CCL3+ NK cells (NKG2A−/NKG2C+ NK cells; Trial 1): 80.9% | percentage of CD107+ NK cells (NKG2A−/NKG2C+ NK cells; Trial 1): 80% | percentage of IFNG+ NK cells (NKG2A−/NKG2C+ NK cells; Trial 1): 69.5% | percentage of TNF+ NK cells (NKG2A−/NKG2C+ NK cells; Trial 1): 57.3% | percentage of CCL3+ NK cells (NKG2A−/NKG2C+ NK cells; Trial 2): 92.4% | percentage of CD107+ NK cells (NKG2A−/NKG2C+ NK cells; Trial 2): 87.3% | percentage of IFNG+ NK cells (NKG2A−/NKG2C+ NK cells; Trial 2): 82.3% | percentage of TNF+ NK cells (NKG2A−/NKG2C+ NK cells; Trial 2): 72.6% | percentage of CCL3+ NK cells (NKG2A−/NKG2C+ NK cells; Trial 3): 86.1% | percentage of CD107+ NK cells (NKG2A−/NKG2C+ NK cells; Trial 3): 88.3% | percentage of IFNG+ NK cells (NKG2A−/NKG2C+ NK cells; Trial 3): 83% | percentage of TNF+ NK cells (NKG2A−/NKG2C+ NK cells; Trial 3): 73.8% | percentage of CCL3+ NK cells (NKG2A−/NKG2C+ NK cells; Trial 4): 71.8% | percentage of CD107+ NK cells (NKG2A−/NKG2C+ NK cells; Trial 4): 71.7% | percentage of IFNG+ NK cells (NKG2A−/NKG2C+ NK cells; Trial 4): 64.5% | percentage of TNF+ NK cells (NKG2A−/NKG2C+ NK cells; Trial 4): 56.2% | percentage of CCL3+ NK cells (NKG2A−/NKG2C+ NK cells; Trial 5): 75.8% | percentage of CD107+ NK cells (NKG2A−/NKG2C+ NK cells; Trial 5): 69.9% | percentage of IFNG+ NK cells (NKG2A−/NKG2C+ NK cells; Trial 5): 63.2% | percentage of TNF+ NK cells (NKG2A−/NKG2C+ NK cells; Trial 5): 57.8% | percentage of CCL3+ NK cells (NKG2A−/NKG2C+ NK cells; Trial 6): 62.1% | percentage of CD107+ NK cells (NKG2A−/NKG2C+ NK cells; Trial 6): 59.3% | percentage of IFNG+ NK cells (NKG2A−/NKG2C+ NK cells; Trial 6): 50.7% | percentage of TNF+ NK cells (NKG2A−/NKG2C+ NK cells; Trial 6): 41.1% | percentage CCL3+ NK cells (NKG2A−/NKG2C− NK cells; Trial 1): 31.9% | percentage CD107+ NK cells (NKG2A−/NKG2C− NK cells; Trial 1): 26.1% | percentage TNF+ NK cells (NKG2A−/NKG2C− NK cells; Trial 1): 4.12% | percentage of IFNG+ NK cells (NKG2A−/NKG2C− NK cells; Trial 1): 16.2% | percentage CCL3+ NK cells (NKG2A−/NKG2C− NK cells; Trial 2): 57.4% | percentage CD107+ NK cells (NKG2A−/NKG2C− NK cells; Trial 2): 34.1% | percentage TNF+ NK cells (NKG2A−/NKG2C− NK cells; Trial 2): 8.51% | percentage of IFNG+ NK cells (NKG2A−/NKG2C− NK cells; Trial 2): 24.9% | percentage CCL3+ NK cells (NKG2A−/NKG2C− NK cells; Trial 3): 49.9% | percentage CD107+ NK cells (NKG2A−/NKG2C− NK cells; Trial 3): 46.1% | percentage TNF+ NK cells (NKG2A−/NKG2C− NK cells; Trial 3): 15.8% | percentage of IFNG+ NK cells (NKG2A−/NKG2C− NK cells; Trial 3): 37.4% | percentage CCL3+ NK cells (NKG2A−/NKG2C− NK cells; Trial 4): 34.8% | percentage CD107+ NK cells (NKG2A−/NKG2C− NK cells; Trial 4): 30.1% | percentage TNF+ NK cells (NKG2A−/NKG2C− NK cells; Trial 4): 9.02% | percentage of IFNG+ NK cells (NKG2A−/NKG2C− NK cells; Trial 4): 18.9% | percentage CCL3+ NK cells (NKG2A−/NKG2C− NK cells; Trial 5): 25.6% | percentage CD107+ NK cells (NKG2A−/NKG2C− NK cells; Trial 5): 18.1% | percentage TNF+ NK cells (NKG2A−/NKG2C− NK cells; Trial 5): 6.52% | percentage of IFNG+ NK cells (NKG2A−/NKG2C− NK cells; Trial 5): 13.9% | percentage CCL3+ NK cells (NKG2A−/NKG2C− NK cells; Trial 6): 24.6% | percentage CD107+ NK cells (NKG2A−/NKG2C− NK cells; Trial 6): 19.1% | percentage TNF+ NK cells (NKG2A−/NKG2C− NK cells; Trial 6): 5.25%
